Laboratory results: US10745701B2, “Methods of identifying and treating poor-prognosis cancers” (The Trustees of Princeton University, priority 2007, dated 2020)

Legend:
[1] = system: LM2 cells; test: Drug uptake and retention analysis of radiolabeled paclitaxel and doxorubicin; conditions: for effect of MTDH on drug uptake or retention: cancer cells with modified MTDH expression (LM2 knockdown, SCP28 overexpression); for kinetics of uptake and retention: parent LM2 cells, pilot study, 50 nM [H3]-paclitaxel or 100 nM [C14]-doxorubicin
[2] = system: LM2 cells; test: Chemoresistance clonogenic assay; format: cell-based, human; conditions: for chemoresistance on ALDH3A1 overexpression in MTDH knockdown cells: constitutive ALDH3A1 overexpression in MTDH knockdown LM2 cells; for sensitivity of LM2 cells on ALDH3A1 knockdown: inducible ALDH3A1 shRNA induced by doxycycline
Method: The infected cells were selected with 0.5 μg/ml puromycin or/and 0.4 mg/ml hygromycin. Double knockdown of MET and ALDH3A1 was achieved by simultaneous infection of MET and ALDH3A1 targeting viruses with different drug selection markers. MTDH, LAPTM4b, PTDSS1, SDC2, TSPYL5, and UQCRB overexpression was achieved using the retroviral expression vector pBabe-hygro. Viruses were generated and used to infect target cells as above and the infected cells were selected with 0.4 mg/ml hygromycin. For combinational overexpression of genes at 8q22, the viruses generated from the expression vector pBabe-puro containing each of the four genes were concentrated by ultracentrifugation and pooled for infection. Northern blots, qRT-PCR, and/or Western blots were performed to validate the knockdown or overexpression of target genes.
To generate an inducible knockdown of ALDH3A1, a retroviral vector expressing the Tet repressor (TetR) was constructed by cloning the TetR coding sequence from the pcDNA6/TR plasmid (Invitrogen) to pQCXIH (Clontech). LM2 cell line with stable expression of TetR was generated by transduction with retroviruses produced from pQCXIH-TetR. The cell line was then infected with retroviruses generated from the pRSMX vector^77 containing the ALDH3A1-targeting shRNA sequence. The expression of a shRNA against ALDH3A1 is under the control of the histone H1 promoter and two adjacent tetracycline operators (TetOs). The bacterial Tet repressor (TetR) is constitutively expressed from the integrated pQCXIH-TetR in this cell line and suppresses the expression of shRNA by binding to TetOs. In the presence of […] doxycycline in the media, TetR is released from the TetOs and allow the transcription of ALDH3A1 shRNA and thus the repression of ALDH3A1 expression. The pBabe-hygro vector was used to overexpress ALDH3A1.
Cancer cells with genetic modification of MTDH and/or ALDH3A1 and the vector control were seeded into a 48-well plate (10^4 cells/well). After 24 h, the cells were treated with apoptosis-inducing chemicals for the indicated time (20, 50 or 100 nM paclitaxel, EMD Biosciences, 24 h; 50, 100 or 200 μM doxorubicin, EMD Biosciences, 24 h; 40 μM cisplatin, EMD Biosciences, 2 h; 200 or 500 μM H2O2, Fisher Scientific, 2 h) or 10 mJ/cm^2 UV irradiation. After culturing in drug-free DMEM medium for another 48 h, the surviving cells were quantified by clonogenic assay with the standard procedure for long-term recovery. Briefly, an aliquot of the harvested cell population was seeded onto a 10 cm dish. Crystal violet staining was used to count the colonies after 10-day culture in DMEM medium. The colony numbers from untreated cells of the same line were used to normalize the experimental data. In the HMVEC-L co-culture assays, HMVEC-L cells were grown to confluence in the 48-well plates with supplemented EGM-2 medium (Lonza) before seeding of cancer cells. Because HMVEC-L cells could not form colonies in the DMEM medium (data not shown), the rest of the assay was performed following the standard procedure.

[3] = system: LM2 cells; test: In vivo chemoresistance assay, subcutaneous LM2 xenograft tumors; parameters: species or system nude mice
Method: MTDH-knockdown or control LM2 cells (1×10^6 cells/0.1 ml in a 50:50 solution of PBS and Matrigel) were injected subcutaneously into each flank of nude mice. The mice were treated with chemotherapeutic drugs (20 mg/kg paclitaxel or 5 mg/kg doxorubicin) or the corresponding drug vehicles (Cremophor for paclitaxel and saline for doxorubicin) twice a week by intravenous delivery a week after the tumor xenografting. Six mice (12 tumors) were used for each group. Tumor growth was monitored twice a week by size measurement. Both maximum (L) and minimum (W) diameters of the tumor were measured using a slide caliper, and the tumor volume was calculated as […]LW^2/6. Tumor growth was normalized to that before drug treatment.

Row | Structure (SMILES) | effect of MTDH on drug uptake or retention [1] | kinetics of uptake and retention [1] | chemoresistance on MET knockdown ([2]; MET knockdown in LM2 cells, weaker than MTDH knockdown) | chemoresistance on ALDH3A1 overexpression in MTDH knockdown cells [2] | sensitivity of LM2 cells on ALDH3A1 knockdown [2] | tumor size relative to pre-treatment size ([3]; MTDH knockdown LM2 cells, 20 mg/kg paclitaxel intravenous twice a week, 18 days after initiation of treatment) | tumor response in MTDH knockdown tumors ([3]; MTDH knockdown LM2 cells, paclitaxel 20 mg/kg or doxorubicin 5 mg/kg twice a week) | tumor volume relative to volume before treatment ([3]; control LM2 cells, 20 mg/kg paclitaxel intravenous twice a week, 18 days after treatment) [%] | effect on tumor growth ([3]; control LM2 cells, versus drug vehicle)
1 | COc1cccc2c1C(=O)c1c(O)c3c(c(O)c1C2=O)C[C@@](O)(C(=O)CO)C[C@@H]3O[C@H]1C[C@H](N)[C@H](O)[C@H](C)O1 [doxorubicin] | does not decrease drug uptake or retention | biphasic kinetics | significant reduction of chemoresistance | partially restore | more sensitive |  |  |  | 
2 | CC(=O)O[C@H]1C(=O)[C@@]2(C)[C@H]([C@H](OC(=O)c3ccccc3)[C@]3(O)C[C@H](OC(=O)[C@H](O)[C@@H](NC(=O)c4ccccc4)c4ccccc4)C(C)=C1C3(C)C)[C@]1(OC(C)=O)CO[C@@H]1C[C@@H]2O [paclitaxel] | does not decrease drug uptake or retention | biphasic kinetics |  | partially restore | more sensitive | about 30% | tumor regression | 140 | significantly hampered tumor growth
